# Columns and labels:
# KMS11-luc cells = assay: RTCC assay of bivalent AB3 in combination with GSI (8x8 matrix); assay type: cell-based, human; conditions: for shift of bivalent AB3 response curves with increasing GSI concentration: combination with bivalent AB3
# Excerpt: Human T cells were isolated from peripheral blood of healthy human donors. First, peripheral blood mononuclear cells (PBMCs) were fractionated from donor blood using a Ficoll-Paque PLUS (GE Healthcare #17-1440-02) density gradient. T-cells were then isolated from PBMCs by negative selection according to manufacturer's recommended protocol (Miltenyi #130-096-535). The isolated T-cells were further expanded using Human T-Activator CD3/CD28 Dynabeads (Gibco #11132D) for nine days, then debeaded magnetically and stored as viable frozen aliquots in liquid nitrogen. The expanded T cells were used as effector T cells in RTCC assays where they were thawed from frozen aliquots, counted and used immediately at an Effector:Target (E:T) cell ratio of 3:1.
# The target MM cell line KMS11 was transduced to constitutively express luciferase, which was used to measure cell viability/survival. KMS11 cells were pelleted and resuspended in fresh media immediately prior to plating to remove any basal level of shed BCMA that can have been present. 2,500 KMS11-luc target cells in 25 μL TCM were added to wells of 384-well plates. 50 nL of serially diluted bivalent AB3 and GSI solutions (LY411575, PR03084014, and BMS0708163) were acoustically dispensed to corresponding wells of the assay plates. 7,500 expanded T cells, as described above, were added to corresponding wells of assay plate in 20 μL TCM. The assay was incubated at 37° C./5% CO2 for 20 hr, followed by measurement of luciferase activity to indicate target cell viability (BrightGlo, Promega #E2650) following manufacturer's protocols. Target cells only (KMS11) without T cells or antibodies serve as control and represent 100% luciferase activity (100% viability). Data were plotted and analyzed using Spotfire, where EC50 values were calculated using sigmoidal, 4-parameter non-linear regression curve fit.
# Data from bivalent AB3 and GSI combinations from Example 11 (FIG. 24) were plotted and analyzed using Spotfire, where EC50 values were calculated using sigmoidal, 4-parameter non-linear regression curve fit.
# mBCMA in KMS11 xenograft = assay: In vivo GSI treatment, membrane BCMA on tumor cells by flow cytometry; set-up: species or system NSG mice; conditions: 150 mg/kg BID for 5 days
# Method: On Day 0, KMS11-Luc cells were harvested and suspended in Hanks Balanced Salt Solution (HBSS) and 50% matrigel solution at a concentration of 25×10^6 cells/mL. Female NOD.Cg-Prkdc^scidII2rg^tm1Wji/SzJ mice (NSG mice) at ˜6 weeks old (Jackson Laboratories, ME, USA), were implanted sub-cutaneously (SQ) with 200 μL of the cell suspension to deliver 5×10^6 KMS11-Luc cells SQ in the right flank. Seven days following tumor inoculation, each mouse received an adoptive transfer (AdT) of 10×10^6 of peripheral blood mononuclear cells (PBMCs) in 100 μL via IV injection in the lateral tail vein. The PBMCs were previously isolated from a human leukopak, frozen and stored in Cryostor10 media in vapor phase liquid Nitrogen tank until use. Immediately prior to AdT, PBMCs were thawed and suspended at a concentration of 100×10^6 cells/ml in Hanks Balanced Salt Solution (HBSS). […] To obtain single cell suspensions from excised tumors, the tissues were minced with scissors followed by mechanical homogenization in dissociation buffer containing RPMI (Gibco, Life Technologies) with Liberase™ research grade collagenase (Roche) and DNase I recombinase (Roche) using the GentleMAX (Miltenyi). Following a 5 minute incubation at 37° C. in a water or bead bath, the homogenates were quenched with 10% FBS and filtered on a 70-μM sieve (352350, Falcon). The concentration of single cell suspensions were measured on the Vi-Cell (Beckman Coulter), and cells were pelleted by centrifugation for 5 minutes at 1200 rpm. The supernatants were discarded and cell pellets were resuspended in 400 μL of RPMI (Gibco, Life Technologies). Tumor cells were plated in a volume of 100 μL/well at a cell density of 500,000 to 2 million/well. For cell surface staining, live/dead stain was added to plated samples in DPBS and incubated for 30 minutes. […] All samples were analyzed together by flow cytometry at the completion of the study. […]
# [1] = tested on: sBCMA in KMS11 xenograft model serum; assay: In vivo GSI treatment, shed BCMA in serum by ELISA; set-up: species or system NSG mice; conditions: 150 mg/kg BID for 5 days
# Method: sBCMA levels in supernatants collected and frozen at the various timepoints were determined by ELISA following vendor supplied protocol (R&D Systems #DY193). Briefly, recombinant human BCMA-Fc protein was included in the kit, and used to generate a standard curve. Collected samples were assayed and sBCMA concentrations extrapolated from the standard curve. […] The results were plotted in Tibco Spotfire or Graphpad Prism against the concentration of GSI. On Day 0, KMS11-Luc cells were harvested and suspended in Hanks Balanced Salt Solution (HBSS) and 50% matrigel solution at a concentration of 25×10^6 cells/mL. Female NOD.Cg-Prkdc^scidII2rg^tm1Wji/SzJ mice (NSG mice) at ˜6 weeks old (Jackson Laboratories, ME, USA), were implanted sub-cutaneously (SQ) with 200 μL of the cell suspension to deliver 5×10^6 KMS11-Luc cells SQ in the right flank. Seven days following tumor inoculation, each mouse received an adoptive transfer (AdT) of 10×10^6 of peripheral blood mononuclear cells (PBMCs) in 100 μL via IV injection in the lateral tail vein. The PBMCs were previously isolated from a human leukopak, frozen and stored in Cryostor10 media in vapor phase liquid Nitrogen tank until use. Immediately prior to AdT, PBMCs were thawed and suspended at a concentration of 100×10^6 cells/ml in Hanks Balanced Salt Solution (HBSS).
# sBCMA from KMS11 cells = assay: Time course of shed BCMA (sBCMA) by ELISA after GSI treatment; assay type: cell-based, human; conditions: 2 nM LY411575 or 200 nM PF03084014, 42-hr time course
# Method: (§1) KMS11 cells were cultured in a 6 well plate at 4×10^6 cells/well in 4 mL of RPMI1640 supplemented with 20% FBS (Gibco #11875-085, Seradigm #1500-500) per well. GSI stock solutions were prepared in DMSO at 10 mM, and added to the cells at final concentrations of 2 nM for LY411575 (Sigma #SML0506) or 200 nM for PF03084014 (Selleckchem #S8018) respectively. Cells were incubated at 37° C./5% CO2, and samples were collected at the following time points: 0, 1, 2, 4, 6, 8, 12, 18, 24, 30 and 42 hr. Collected samples were evaluated for BCMA expression by ELISA and flow cytometry as outline below.
# (§2) A pre-treatment study was conducted as above except that KMS11 cells were treated overnight (22 hr) with only LY411575. Cells were washed twice with 3 volumes of growth medium, and re-plated with fresh growth medium without the GSI to the original 4 mL volume. […]
# sBCMA levels in supernatants collected and frozen at the various timepoints were determined by ELISA following vendor supplied protocol (R&D Systems #DY193). […] Quantified values as determined by the kit were divided by 5.5 to correct for a molecular mass difference between BCMA-Fc fusion protein used in the kit as a standard curve (32,554.6 Da) and the mass of endogenously shed BCMA extra-cellular domain (5,899.3 Da). […]
# mBCMA on KMS11 cells = assay: Time course of membrane BCMA (mBCMA) by flow cytometry after GSI treatment; assay type: cell-based, human; conditions: 2 nM LY411575 or 200 nM PF03084014, 42-hr time course
# Method: as §1, §2
# For each collected sample, cells were pelleted by centrifugation. […] Samples from all timepoints were analyzed together by flow cytometry on a BD LSR Fortessa instrument. […]
# Where receptor density of BCMA was provided, the anti-BCMA antibody binding capacity (ABC) on KMS11 cells was determined using Quantum Simply Cellular beads (Bangs Laboratories #815) following vendor supplied protocol. The ABC is an estimate of the quantity of receptors per cell.
# [2] = KMS11-luc, expanded T cells E:T 3:1, 20 hr
Structure (SMILES),GSI concentration with modest enhancement of bivalent AB3 potency (KMS11-luc cells; [2]) [nM],GSI concentration with significant enhancement of bivalent AB3 potency (KMS11-luc cells; [2]) [nM],shift of bivalent AB3 response curves with increasing GSI concentration (KMS11-luc cells),increase in mBCMA compared to the vehicle control (mBCMA in KMS11 xenograft) [fold],mBCMA levels by 24 hours post last dose (mBCMA in KMS11 xenograft),time point post last dose through which mBCMA increase was sustained (mBCMA in KMS11 xenograft) [h],sBCMA levels between 24 and 48 hours post last dose [1],time post last dose for which sBCMA levels were ablated [1],sBCMA concentration over time (sBCMA from KMS11 cells),mBCMA levels over time (mBCMA on KMS11 cells),GSI concentration with no effect on bivalent AB3 activity (KMS11-luc cells; [2]) [pM],GSI concentration with small effect on bivalent AB3 activity (KMS11-luc cells; [2]) [pM]
"NC(=O)[C@@H](CCC(F)(F)F)N(Cc1ccc(-c2ncon2)cc1F)S(=O)(=O)c1ccc(Cl)cc1 [BMS-708163, (R)-2-((4-chloro-N-(2-fluoro-4-(1,2,4-oxadiazol-3-yl)benzyl)phenyl)sulfonamido)-5,5,5-trifluoropentanamide]",8,≥ 31,response curves shifted to the left,–,–,–,–,–,–,–,–,–
"CCC[C@H](N[C@H]1CCc2cc(F)cc(F)c2C1)C(=O)Nc1cn(C(C)(C)CNCC(C)(C)C)cn1 [PF03084014, (S)-2-(((S)-6,8-difluoro-1,2,3,4-tetrahydronaphthalen-2-yl)amino)-N-(1-(2-methyl-1-(neopentylamino)propan-2-yl)-1H-imidazol-4-yl)pentanamide]",3,≥ 12,response curves shifted to the left,10,dropped back to levels similar to those observed for the vehicle control,7,returning to levels comparable to those observed for the vehicle treated animals,up to 24 hours,no increase over time,increased over time,–,–
"C[C@H](NC(=O)[C@@H](O)c1cc(F)cc(F)c1)C(=O)N[C@@H]1C(=O)N(C)c2ccccc2-c2ccccc21 [LY411575, (S)-2-((S)-2-(3,5-difluorophenyl)-2-hydroxyacetamido)-N—((S)-5-methyl-6-oxo-6,7-dihydro-5H-dibenzo[b,d]azepin-7-yl)propanamide]",–,≥ 0.125,response curves shifted to the left,–,–,–,–,–,no increase over time,increased over time,≤ 7.8,31.2

# Source: patent US12275795B2, “Binding molecules against BCMA and uses thereof” (NOVARTIS AG, priority 2018, dated 2025)
